We go through one molecule from patent publication US7915012B2, “Methods for screening for inhibitors of TRPV2 activation” (Korea University Industry and Academic Collaboration …, priority 2008, dated 2011).

Entries after “also recorded” stand apart in the source; their conditions may differ.

The assay has as its target T1, mTRPV3 (Mus musculus, UniProt Q8K424, A9V).
T1 construct: expressed in transfected cells; host or cells: HEK293T (ATCC CRL-11268)
T1 sequence (Q8K424 1-791 A9V): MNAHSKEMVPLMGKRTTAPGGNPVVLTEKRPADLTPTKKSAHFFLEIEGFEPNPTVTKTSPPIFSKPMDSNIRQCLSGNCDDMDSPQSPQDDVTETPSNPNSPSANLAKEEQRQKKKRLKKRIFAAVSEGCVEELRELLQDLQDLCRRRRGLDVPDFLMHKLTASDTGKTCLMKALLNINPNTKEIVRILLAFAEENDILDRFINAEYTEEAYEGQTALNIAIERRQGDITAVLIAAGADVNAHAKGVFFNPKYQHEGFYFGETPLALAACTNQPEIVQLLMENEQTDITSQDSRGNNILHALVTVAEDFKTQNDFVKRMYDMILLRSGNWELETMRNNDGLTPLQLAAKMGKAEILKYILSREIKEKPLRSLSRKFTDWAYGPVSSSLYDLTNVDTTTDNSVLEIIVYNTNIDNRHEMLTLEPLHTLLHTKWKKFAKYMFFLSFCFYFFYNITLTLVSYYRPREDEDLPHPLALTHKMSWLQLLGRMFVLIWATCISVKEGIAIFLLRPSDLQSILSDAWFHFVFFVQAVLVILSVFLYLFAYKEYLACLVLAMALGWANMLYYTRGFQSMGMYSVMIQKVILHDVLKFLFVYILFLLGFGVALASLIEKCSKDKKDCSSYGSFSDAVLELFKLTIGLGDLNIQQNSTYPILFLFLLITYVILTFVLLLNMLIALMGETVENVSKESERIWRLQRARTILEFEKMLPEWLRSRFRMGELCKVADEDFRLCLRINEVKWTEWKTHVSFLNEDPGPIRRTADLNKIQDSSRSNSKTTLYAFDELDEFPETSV
The assay can be described thus: Fluo-3 calcium imaging in TRPV3 transfected HEK293T cell line. Type of assay: cell-based. The conditions noted are these: 100 μM probenecid. The method, then: HEK293T cell line (ATCC CRL-1 1268) was transiently transfected with plasmid DNA containing polynucleotide encoding […] (SEQ. ID. NO: 1), rTRPV2 (SEQ. ID. NO: 2), mTRPV3 (SEQ. ID. NO: 3), rTRPV4 (SEQ. ID. NO: 4), mTRPM8 (SEQ. ID. NO: 5) or mTRPA1 (SEQ. ID. NO: 6).
Particularly, the HEK293T cell line was transiently transfected with individual TRP channel plasmid (pcDNA3.1 containing polynucleotide encoding rTRPV1, rTRPV2, mTRPV3, rTRPV4, mTRPM8 or mTRPA1), and 600 ng/well of pCDNA3 (Invitrogen Corp., USA; containing green fluorescent protein (GFP) cDNA) using Fugene6 (Roche Diagnostics, USA) according to manufacturer's instruction. The transformed cells were cultured in DMEM/F12 containing 10% FBS and 1% penicillin/streptomycin in a CO2 incubator for 24 hours. The cells were replated onto poly-L-lysine-coated glass coverslips, followed by further culture for 10-24 hours.
Particularly, the transfected cell line of Example <3-1> and Example <3-2> was loaded with Fluo-3AM (5 μM; Sigma Aldrich, USA) in the bath solution (140 mM NaCl, 5 mM KCl, 2 mM CaCl2, 1 mM MgCl2, 10 mM HEPES; adjusted to pH 7.4 with NaOH) containing 0.02% pluronic acid (Invitrogen, USA) at 37° C. for 1 hour. […]

Consider `CCCN(CCC)S(=O)(=O)c1ccc(C(=O)O)cc1` [probenecid], for which the “TRPV3 activation (calcium imaging)” value is “only TRPV2 was activated; also recorded: not confirmed”.
